Each structure is given as a SMILES string.

The subject of the assay is rat model of hyperuricemia induced by adenine (100 mg/kg)+ethambutol (250 mg/kg). Nature of the assay: Rat model of hyperuricemia induced by adenine + ethambutol; serum UA, CREA, UREA. The assay is classed as in vivo. As to the method:
40 rats were randomly divided into 5 groups with 8 rats in each group. The groups were as follows: Blank Group (Vehicle, ig); Model Group (Vehicle, ig); Positive control group (Allopurinol, 10 mg/kg, ig); Compound 1 group (Sevelamer carbonate, 250 mg/kg, ig); Compound 2 group (PAA polymer, 50 mg/kg, ig). Except for Blank group, rats in other groups were modeled according to the chronic modeling method. The modeling method was as follows: rats were given Adenine (100 mg/kg)+Ethambutol (250 mg/kg) by gavage, once a day, for 21 days. Animals in blank group and model group were given equal volume of normal saline by gavage. Animals in positive control group were given 10 mg/kg Alloalcohol by gavage, once in the first week, once in the second week, once a day for 3 days before sampling in the third week. Animals in each group were given intragastric administration once a day for 14 consecutive days from the 8th day of modeling. Blood samples were taken at Day 21 after modeling, and serum samples were separated and stored at −80[…] for biochemical detection.
After 21 days of modeling (14 days of drug treatment), blood samples were taken and serum separation was performed to detect three renal functions (UA, CREA and UREA) (See Table 1 and FIGS. 1a to 1c). Compound 1 is Sevelamer carbonate and Compound 2 is a polyallylamine-based copolymer having a general structure of formula (4) as described herein.

Where [1] appears, read: after 21 days of modeling, adenine + ethambutol model.
Setting [2] is: serum, after 21 days of modeling (14 days of administration), ig, Allopurinol 10 mg/kg, Compound 1 250 mg/kg, Compound 2 50 mg/kg.

As to `Oc1ncnc2[nH]ncc12` [Allopurinol], under setting [1], the “level of CREA compared with the model group (in words)” value is “significantly reduced”, the “level of UA compared with the model group (in words)” value is “significantly reduced” and the “level of UREA compared with the model group (in words)” value was “significantly reduced”. Under setting [2], the CREA is 54.73 ± 4.75 ^ μmol/L, the UA stood at 12.88 ± 6.01 µmol/L and the UREA worked out at 5.82 ± 1.10 mmol/L.
